Patent publication US9353141B2, “Galectoside inhibitors of galectins” (GALECTO BIOTECH AB, priority 2012, dated 2016)
Values belong to the molecule of their own block, whether it stands above or below them.

Assays:
galectins = details: all galectins; cited from earlier work
[1] = molecular target: T1, galectin-4 (C-terminal domain) (Homo sapiens, UniProt P56470); assay: Fluorescence polarization-based galectin inhibition assay; assay type: binding; details: 20° C., read-out: Calculated Kd Galectin 4 (C-terminal domain)
T1 sequence (P56470 194-323 limits assumed): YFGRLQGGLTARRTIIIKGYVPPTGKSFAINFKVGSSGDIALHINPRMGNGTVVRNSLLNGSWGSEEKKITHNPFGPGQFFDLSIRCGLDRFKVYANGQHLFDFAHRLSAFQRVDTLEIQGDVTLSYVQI
From the text: (§1) Identification of the substances was made by HRMS (Micromass Q-tof micro) and NMR (Bruker Ultrashield 400 plus, 400 MHz). Chemical shifts are reported downfield from Me4Si using residual […] (7.26 ppm) or CHD2OD (3.35 ppm) as reference. Chemical shifts and coupling constants were obtained from ^1H-NMR and proton resonances were assigned from COSY experiments. Purification was made by RF-HPLC (Beckman, system gold) or flash chromatography, using silica gel (Davisil 35-70 μm, 60 Å). Reactions were followed by TLC (Aluminum sheet, silica gel 60 F254) visualized with UV light, H2SO4 (aq) or an iso-vanillin/H2SO4/EtOH development solution. THF and Et2O were dried over sodium/benzophenone and distilled. CH2Cl2 was dried by molecular sieves (4 Å, 1.6 mm). Other solvents and reagents were commercially available and used without further purifications. Fluorescence polarization experiments were performed on a PolarStar instrument (BMG, Offenburg; Germany). Evaluation of 20-34 as inhibitors of galectins was performed by use of fluorescence polarization as described in the literature (Sorme et al., 2003a, 2004). Galectin concentrations and fluorescent probe choice and concentrations were as described in Cumpstey et al. 2005a, except for galectin-3 for which the probe tdga-probe described in Salomonsson et al. 2010 was used at 20 nM together with galectin-3 at 200 nM concentrations. Each inhibitor was tested in duplicate at several concentrations between 4 and 0.25 μM. All fluorescence polarization experiments were conducted at 20° C., except galectin-7 for which experiments were conducted at 0° C.

galectin-1 = galectin-1 (Homo sapiens, UniProt P09382); assay: as above; assay type: binding; details: 20° C., read-out: Calculated Kd Galectin 1
From the text: as §1

galectin-3 = galectin-3 (Homo sapiens, UniProt P17931); assay: as above; assay type: binding; details: 20° C., tdga-probe 20 nM, galectin-3 200 nM, read-out: Calculated Kd Galectin 3
From the text: as §1

[2] = molecular target: T2, galectin-4 (N-terminal domain) (Homo sapiens, UniProt P56470); assay: as above; assay type: binding; details: fluorescence polarization, 20° C.; read-out: Calculated Kd Galectin 4 (N-terminal domain)
T2 sequence (P56470 19-150 limits assumed): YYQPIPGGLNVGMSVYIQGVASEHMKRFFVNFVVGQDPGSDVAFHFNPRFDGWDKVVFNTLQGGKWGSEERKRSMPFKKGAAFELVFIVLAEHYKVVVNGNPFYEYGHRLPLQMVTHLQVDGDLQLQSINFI
From the text: as §1

[3] = molecular target: T3, galectin-8 (N-terminal domain) (Homo sapiens, UniProt O00214); assay: as above; assay type: binding; details: 20° C., read-out: Calculated Kd Galectin 8 (N-terminal domain)
T3 sequence (O00214 19-152 limits assumed): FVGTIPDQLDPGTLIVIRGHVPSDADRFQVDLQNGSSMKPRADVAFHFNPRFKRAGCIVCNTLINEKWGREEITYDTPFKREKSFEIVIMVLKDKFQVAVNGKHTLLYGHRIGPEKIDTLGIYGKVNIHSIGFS
From the text: as §1

galectin-7 = galectin-7 (Homo sapiens, UniProt P47929); assay: as above; assay type: binding; details: 0° C., read-out: Calculated Kd Galectin 7
From the text: as §1

[4] = molecular target: galectin-9 (N-terminal domain) (Homo sapiens, UniProt O00182); assay: as above; assay type: binding; details: 20° C., read-out: Calculated Kd Galectin 9 (N-terminal domain)
From the text: as §1

[5] = molecular target: galectin-9 (C-terminal domain) (Homo sapiens, UniProt O00182); assay: as above; assay type: binding; details: 20° C., read-out: Calculated Kd Galectin 9 (C-terminal domain)
From the text: as §1

Sequence of galectin-1 (P09382 whole entry, species assumed): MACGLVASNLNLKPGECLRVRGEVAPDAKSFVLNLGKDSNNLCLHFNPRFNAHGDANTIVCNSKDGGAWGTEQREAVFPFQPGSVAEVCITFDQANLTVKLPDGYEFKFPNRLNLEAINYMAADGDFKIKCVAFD
Sequence of galectin-9 (C-terminal domain) (O00182 227-355 limits assumed, species assumed): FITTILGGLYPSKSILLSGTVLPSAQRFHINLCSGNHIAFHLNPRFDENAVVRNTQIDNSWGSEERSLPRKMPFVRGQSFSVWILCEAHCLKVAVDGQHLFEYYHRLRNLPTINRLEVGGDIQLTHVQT
Sequence of galectin-9 (N-terminal domain) (O00182 17-148 limits assumed, species assumed): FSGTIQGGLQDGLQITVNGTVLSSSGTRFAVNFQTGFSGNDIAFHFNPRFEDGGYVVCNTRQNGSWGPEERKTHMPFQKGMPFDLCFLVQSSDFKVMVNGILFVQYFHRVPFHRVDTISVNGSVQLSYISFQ
Sequence of galectin-7 (P47929 whole entry, species assumed): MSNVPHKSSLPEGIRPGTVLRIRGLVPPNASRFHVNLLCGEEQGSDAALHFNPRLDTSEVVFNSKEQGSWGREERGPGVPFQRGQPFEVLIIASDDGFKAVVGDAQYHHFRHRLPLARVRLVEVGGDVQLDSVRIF
Sequence of galectin-3 (P17931 whole entry, species assumed): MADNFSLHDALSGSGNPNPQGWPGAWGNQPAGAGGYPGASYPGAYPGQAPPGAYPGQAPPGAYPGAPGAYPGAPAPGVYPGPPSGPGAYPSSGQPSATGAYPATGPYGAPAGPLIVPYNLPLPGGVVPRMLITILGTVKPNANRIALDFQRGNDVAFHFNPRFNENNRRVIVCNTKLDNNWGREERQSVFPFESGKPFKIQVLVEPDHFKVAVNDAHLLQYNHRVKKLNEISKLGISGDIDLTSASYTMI

Compound: O=C[C@H](O)[C@@H](O)[C@@H](O)[C@H](O)CO [D-galactose]
affinity compared with lactose (galectins): 50-100 times lower

Compound: OC[C@H]1O[C@@H](O[C@H]2[C@H](O)[C@@H](O)C(O)O[C@@H]2CO)[C@H](O)[C@@H](O)[C@H]1O (stereo partly shown) [lactose]
Kd (galectins): 500 to 1000 µM

Kd [1]: > 500 µM
Kd (galectin-1): 9.9 µM
Kd (galectin-3): 0.89 µM
Kd [2]: 130 µM
Kd [3]: 85 µM
Kd (galectin-7): 37 µM
Kd [4]: 13 µM
Kd [5]: ~4 µM
Compound: COc1ccc2cc(CO[C@H]3[C@@H](O)[C@@H](CO)O[C@@H](S[C@@H]4O[C@H](CO)[C@H](O)[C@H](OCc5cc6ccc(OC)cc6oc5=O)[C@H]4O)[C@@H]3O)c(=O)oc2c1 [Compound 22, bis-{3-O-[(7-methoxy-2H-1-benzopyran-2-on-3-yl)-methyl]-β-D-galactopyranosyl}sulfane]
